Experimental findings from patent US20130109581A1, “POSITIVELY CHARGED SPECIES AS BINDING REAGENTS IN THE SEPARATION OF PROTEIN AGGREGATES FROM MONOMERS” (priority 2009, published 2013) are described below.

Entries after “also recorded” stand apart in the source; their conditions may differ.

The target of test [1] is T1, E22G globulomer (beta amyloid 1-42, Arctic mutation) (Homo sapiens, UniProt P05067, E693G).
T1 construct: Three beta amyloid 1-42 peptides were generated to test the role of E22; purchased Anaspec
The test is described as follows: NMPA capture of E22G globulomer. The following applies: neutrally charged mutant; FIG. 8. The format is binding. The text has this: Three beta amyloid 1-42 peptides were generated to test the role of E22: a wild-type peptide, a mutant peptide containing Arctic mutation E22G with a neutral charge, and a mutant peptide containing Italian mutation E22K with a positive charge. Synthetic peptides were commercially available from Anaspec.
Mutant peptides were oligomerized according to the methods described in Example 3.
NMPA was used to evaluate the ability of PSR1 to capture the E22G globulomer. The methods used are described in Example 2.

The target in another test is T2, Abeta 1-40 monomer (Homo sapiens, UniProt P05067).
T2 construct: Abeta 1-40 monomer capture level; from tissue; host or cells: cerebrospinal fluid (matrix of the assay)
The test is described as follows: Globulomer capture assay in CSF (Example 6): Abeta 1-40 noise. Format: binding. The following applies: Abeta 1-40 signal (noise), CSF samples. Here is the method: A series of new potential aggregate-specific binding reagents were designed as shown below and conjugated onto magnetic Dynal M270 beads as described in Example 2. Typically 7-12 nmol of ligand (each candidate aggregate-specific binding reagent) was coated onto 1 mg of beads.
Aliquots of the beads (typically 3 ul) were added to wells of a 96 well plate, followed by sample (with or without Abeta 1-42 globulomer (an Abeta42 oligomer model) spiked in 80:20 CSF:TBSTT, typically 125 ul). The plate was sealed and incubated for 1 hour at 37° C. with shaking. The plate was washed with aqueous solutions of detergent (typically polyethylene glycol sorbitan monolaurate and n-tetradecyl-N,N-dimethyl-3-ammonio-1-propanesulfonate) to remove ubound material and the residual buffer removed. A denaturing solution (typically 0.1-0.15 N NaOH) was added to each well and the plate heated to 80° C. for 30 min with shaking. After cooling the plate to room temperature, a neutralizing buffer (typically 0.12-0.18 M NaH2PO3 in 0.4% TWEEN20,) was added and the plate was shaken briefly at room temperature. The bead eluate was analyzed using either an Aβ42-specific ELISA or the MSD® 96-Well MULTI-SPOT® Human/Rodent [4G8] Abeta Triplex Ultra-Sensitive Assay from Meso Scale Discovery (Gaithersburg, Md.). For the Aβ42-specific assay, the samples were eluted from the beads and a detection antibody (4G8 HRP) was added to a plate bearing the Aβ42-specific antibody 12F4. The plate was incubated for 1 hour, washed, the substrate was added (SuperSignal West Femto Maximum Sensitivity Substrate from Thermo Fisher, Rockville, Md.), and the luminescence was measured. The MSD plate assay was performed in a similar fashion, according to the manufacturer's protocol.
In this experiment the preferred number of charges within a given scaffold was identified. An Ala/Lys peptide framework was utilized, where the inclusion of each Lys residue increases the peptides' net charge by +1. Six hexapeptides with increasing charge (+1→+6), AAAKAA, AAKKAA, AAKKKA, AKKKKA, AKKKKK, and KKKKKK, were prepared and conjugated on the beads. The ability of these beads to capture Abeta 1-42 globulomer spiked at 1 ng/mL into CSF was tested, and the result is shown in FIG. 25. The globulomer capture level (“42 1 ng/ml” or the closed bars) was compared to the background signal of Abeta 1-42 detected in the unspiked CSF (“42 0 ng/ml”) and the background signal of Abeta 1-40 detected in unspiked CSF (“40 0 ng/ml”) or CSF spiked with AB42 oligomers “40 1 ng/ml”. The charge density, as conjugated to the magnetic beads, of each reagent evaluated in this experiment is shown below in Table 8.

The target in test [2] is T3, Aβ40 aggregates in AD CSF (Homo sapiens, UniProt P05067).
T3 construct: from tissue; host or cells: pooled cerebrospinal fluid (normal or AD)
The experiment in a line: Discrimination between AD and normal CSF. The format is binding. The following applies: FIG. 39. The method, then:
(§1) The Ab42 aggregates were prepared as previously described: fibrils were prepared per Stine et al (JBC 2003, 278, p11612), globulomers were prepared per Barghorn et al (J Neurology 2005 95 p834), ADDLs were prepared per Lambert et al (PNAS 1998, 95 p6448), and ASPDs were prepared per Noguchi et al (JBC 2009 284 p32895). Normal CSF was pooled from clinically characterized non-demented patient CSF samples. AD CSF was pooled from clinically-characterized AD patient samples. Alzheimer's Disease Brain Homogenate (ADBH) was prepared by sonication of clinically diagnosed AD patient brain samples in 0.2M.sucrose (1:10 w/v).
(§2) For the capture assay (Misfolded Protein Assay), aliquots of the beads (30 ul) were added to wells of a 96 well plate, followed by 125 ul of sample in 80:20 CSF:TBSTT. The plate was sealed and incubated for 1 h at 37 C with shaking. The plate was washed with TBST and the residual buffer removed. A denaturing solution (0.1 N NaOH) was added to each well and the plate heated to 80 C. for 30 min with shaking. After cooling the plate to RT, a neutralizing buffer (0.12 M NaH2PO3-0.4% TW20,) was added and the plate shaken briefly at RT. The assay was analyzed using the triplex Mesoscale Discovery ELISA kit for Aβ. The Aβ in the samples eluted from the beads were detected per the manufacturer's protocol.
For discriminating between AD and normal CSF, pooled normal CSF or pooled Alzheimer's Disease patient CSF, were assayed per the protocol described above.

For a further test, the system named is tau aggregates. Format: binding, human.
For the next test, the target named is T4, Aβ42 Monomer (Homo sapiens, UniProt P05067).
T4 construct: The Ab42 aggregates were prepared as previously described
The test is described as follows: Misfolded Protein Assay, Limit of Detection in CSF: monomer. Format: binding. The following applies: spiked into CSF; LoD = 2× over background. The method, then: as §1
as §2, with “protocol. […]” for “protocol.”

The test system of test [3] is Alzheimer's Disease Brain Homogenate (ADBH) Aβ aggregates. The test is described as follows: Misfolded Protein Assay, LoD in CSF: ADBH. Format: binding, human. The following applies: spiked into CSF. Here is the method:
as §1
as §2, with “protocol. […]” for “protocol.”

Nab-Nab-Nab-Nbn-Nab-Nbn [PSR1]: the “capture of E22G globulomer” value in test [1] is “not captured”. Also, the “40, 1 ng/ml average reading” value at Abeta 1-40 monomer is given as 234.5 RLUs. Moreover, in test [2], the “Aβ40 signal in pooled AD CSF relative to normal pool” value is given as “higher Aβ40 signal in positive pooled AD CSF relative to unmatched normal pool”. Besides, in the test on tau aggregates, the “distinguishing control and AD brain homogenates, Tau detected” value is “clearly distinguished between control and either vCJD or AD samples”; the “total Tau signal, AD vs normal brain homogenate” value was “higher signals in the AD samples relative to the normal brain homogenates; also recorded: highest signal”. Also, the LoD at Aβ42 Monomer is recorded as around 1000 pg/mL. The substance also returned a LoD in test [3] below 0.2 amol.
